Measurements published in PubChem BioAssay (NCI).
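Following 48 hours of exposure in 96-well plates, responses at five concentrations were used to interpolate endpoints linearly. The concentration for full growth arrest is given as TGI.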

Experiments:
Test in all cases: DTP human tumour cell line panel, 48 h
[1] = test system: 786-0 renal
[2] = test system: A498 renal
[3] = test system: A549 NSCLC
[4] = test system: ACHN renal
[5] = test system: BT-549 breast
[6] = test system: CAKI-1 renal
[7] = test system: CCRF-CEM leukemia
[8] = test system: COLO 205 colon
[9] = test system: DU-145 prostate
[10] = test system: EKVX NSCLC
[11] = test system: HCC-2998 colon
[12] = test system: HCT-116 colon
[13] = test system: HCT-15 colon
[14] = test system: HL-60(TB) leukemia
[15] = test system: HOP-62 NSCLC
[16] = test system: HOP-92 NSCLC
[17] = test system: HS 578T breast
[18] = test system: HT29 colon
[19] = test system: IGROV1 ovarian
[20] = test system: K-562 leukemia
[21] = test system: KM12 colon
[22] = test system: LOX IMVI melanoma
[23] = test system: M14 melanoma
[24] = test system: MALME-3M melanoma
[25] = test system: MCF7 breast
[26] = test system: MDA-MB-231 breast
[27] = test system: MDA-MB-435
[28] = test system: MDA-N
[29] = test system: MOLT-4 leukemia
[30] = test system: NCI-H226 lung
[31] = test system: NCI-H23 lung
[32] = test system: NCI-H460 lung
[33] = test system: NCI-H522 lung
[34] = test system: NCI/ADR-RES ovarian
[35] = test system: OVCAR-3 ovarian
[36] = test system: OVCAR-4 ovarian
[37] = test system: OVCAR-5 ovarian
[38] = test system: OVCAR-8 ovarian
[39] = test system: PC-3 prostate
[40] = test system: RPMI-8226 leukemia
[41] = test system: RXF 393 renal
[42] = test system: SF-268 CNS
[43] = test system: SF-295 CNS
[44] = test system: SF-539 CNS
[45] = test system: SK-MEL-2 melanoma
[46] = test system: SK-MEL-28 melanoma
[47] = test system: SK-MEL-5 melanoma
[48] = test system: SK-OV-3 ovarian
[49] = test system: SN12C renal
[50] = test system: SNB-19 CNS
[51] = test system: SNB-75 CNS
[52] = test system: SR leukemia
[53] = test system: SW-620 colon
[54] = test system: T-47D breast
[55] = test system: TK-10 renal
[56] = test system: U251 CNS
[57] = test system: UACC-257 melanoma
[58] = test system: UACC-62 melanoma
[59] = test system: UO-31 renal

For `N#Cc1c(NC(=O)C(F)(F)F)sc2c3c(=O)c4ccccc4c(=O)c=3oc3ccccc3c12`, the TGI [1] was 72.2 µM, the TGI [2] was greater than 72.3 µM and the TGI [3] was greater than 77.6 µM. The TGI [4] was greater than 58 µM, the TGI [5] was 53.3 µM and the TGI [6] was 31.4 µM. For the same molecule, the TGI [7] was 12.5 µM, the TGI [8] was 32.8 µM and the TGI [9] was 28.7 µM. The TGI [10] was 65.4 µM, the TGI [11] was 31 µM and the TGI [12] was 29.1 µM. The TGI [13] was 49.7 µM, the TGI [14] was 24.6 µM and the TGI [15] was greater than 61.9 µM. It also gave a TGI [16] greater than 53.6 µM, a TGI [17] of 14.6 µM and a TGI [18] of 41.6 µM. The TGI [19] was 48.7 µM, the TGI [20] was 75.3 µM and the TGI [21] was 26 µM. The TGI [22] was greater than 59.1 µM, the TGI [23] was greater than 61.7 µM and the TGI [24] was 13.1 µM. For the same molecule, the TGI [25] was greater than 89.9 µM, the TGI [26] was 67 µM and the TGI [27] was 41.4 µM. The TGI [28] was 36.5 µM, the TGI [29] was 34.3 µM and the TGI [30] was 21.2 µM. The TGI [31] was 38.4 µM, the TGI [32] was 36.5 µM and the TGI [33] was 32.6 µM. For the same molecule, the TGI [34] was 61.7 µM, the TGI [35] was greater than 80.1 µM and the TGI [36] was 31.2 µM. The TGI [37] was 63.3 µM, the TGI [38] was greater than 56 µM and the TGI [39] was greater than 62.2 µM. It also gave a TGI [40] of 56.2 µM, a TGI [41] greater than 63.4 µM and a TGI [42] of 61.4 µM. The TGI [43] was 35.8 µM, the TGI [44] was 32.1 µM and the TGI [45] was 54.7 µM. For the same molecule, the TGI [46] was 51.5 µM, the TGI [47] was 26.6 µM and the TGI [48] was 77.2 µM. The TGI [49] was 55.3 µM, the TGI [50] was 49.5 µM and the TGI [51] was 39.4 µM. The TGI [52] was 13.5 µM, the TGI [53] was 67.1 µM and the TGI [54] was 59.3 µM. The TGI [55] was 74.6 µM, the TGI [56] was 41.3 µM and the TGI [57] was 35.7 µM. The TGI [58] was 26 µM and the TGI [59] was 46.4 µM.
